Tested on: Mf
Test: Compatibility of Mf with agrochemicals (CFU in liquid medium)
Type: cell-based, Metschnikowia fructicola
Conditions: TBZ 0.02%; Teldor 0.015%; Mitos 0.025%; Rovral 0.02%; Switch 0.01%; Imazalil 0.005%; 0-48 h, FIG. 8
Protocol: In order to establish that Mf is suitable for combination with a variety of commonly employed chemical pesticides, ten percent strength of liquid medium (NYDB) with various concentrations of common agrochemicals added was inoculated with a cell suspension of Mf (25 ml of 10^9 cell/ml) and incubated on a rotary shaker at room temperature. The following commercially available agrochemicals were employed: TBZ (0.02%); Teldor (0.015%); Mitos (0.025%); Rovral (0.02%); Switch (0.01%); and Imazalil (0.005%). Samples were aseptically withdrawn from the at 0 time, 24 h and 48 h of incubation. Samples were serially diluted and aliquots of 30 μl of the dilutions were plated on PDA. Plates were incubated at 25° C. for 3–4 days and colony forming units (CFU) were counted.

C=CCOC(Cn1ccnc1)c1ccc(Cl)cc1Cl (stereo not shown) [Imazalil, 1-(2-2,4-Dichlorophenyl)-2(2-propenyloxy-ethyl)-1Himidazol]
Effect of agrochemical on growth (CFU) of Mf: slowed, but did not prevent, its growth

Source: patent US6994849B2, “Yeast Metschnikowia fructicola NRRL Y-30752 for inhibiting deleterious microorganisms on plants” (State of Israel, Ministry of Agriculture, Agricultural …, priority 2001, dated 2006)
